The values that follow come from US7902182B2, “HIV integrase inhibitors” (priority 2005, dated 2011).

A word on the IC50: it is the concentration needed to halve the response being measured.

This experiment deals with T1, HIV-integrase (Human immunodeficiency virus type 1 group M subtype B, UniProt P12497).
T1 construct: Recombinant integrase (0.26 ng) was incubated with the beads
The experiment is described as follows: HIV-Integrase Inhibition Activity (SPA bead strand transfer assay). It is filed as biochemical. To be noted: recombinant integrase, biotin labeled substrate DNA on SPA beads, P33 labeled target DNA; read-out: Activity (IC50 against HIV-integrase). The procedure: HIV-Integrase InhibitionActivity. To evaluate in-vitro activity against HIV-integrase, 5 pmole of biotin labeled substrate DNA was bound to 100 μg of Streptavidin coated PVT SPA beads (Amersham Pharmacia Biotech). Recombinant integrase (0.26 ng) was incubated with the beads for 90 min at 37° C. Unbound enzyme was removed by washing the complex followed by addition of inhibitors and 0.1 fmol of P33 labeled target DNA. The reaction was stopped by adding EDTA to a final concentration of 10 mM. Samples were counted in TopCountNXT (Packard) and the CPM was used as a measure of integration. The reaction condition was as described in A. Engelman and R. Craigie, J. Virol. 69, 5908-5911 (1995). The sequences of substrate and target DNA were described in Nucleic Acid Research 22, 1121-1122 (1994).
Activity equal to A refers to a compound having IC50=0.002 to 0.10 μM while B and C denote compounds having IC50=0.1 to 1.0 μM and IC50≧1.0 μM respectively.
As for `O=C(NCc1ccc(F)cc1S(=O)(=O)N1CCNCC1)c1nc2n(c(=O)c1O)CCOC21CCOCC1` [Example 1], the IC50 lay within 2 to 100 nM. `CN1CCN(S(=O)(=O)c2cc(F)ccc2CNC(=O)c2nc3n(c(=O)c2O)CCOC32CCOCC2)CC1` [Example 2]: the IC50 is 2 to 100 nM. Consider `COC(=O)N1CCN(S(=O)(=O)c2cc(F)ccc2CNC(=O)c2nc3n(c(=O)c2O)CCOC32CCOCC2)CC1` [Example 3], for which the IC50 fell in the range of 2 to 100 nM. The result for `CCN1CCN(S(=O)(=O)c2cc(F)ccc2CNC(=O)c2nc3n(c(=O)c2O)CCOC32CCOCC2)CC1` [Example 5] reads 2 to 100 nM; that for `CN(C)C(=O)N1CCN(S(=O)(=O)c2cc(F)ccc2CNC(=O)c2nc3n(c(=O)c2O)CCOC32CCOCC2)CC1` [Example 7], 2 to 100 nM; that for `CN(C)S(=O)(=O)N1CCN(S(=O)(=O)c2cc(F)ccc2CNC(=O)c2nc3n(c(=O)c2O)CCOC32CCOCC2)CC1` [Example 8], 2 to 100 nM. Consider `O=C(NCc1ccc(F)cc1S(=O)(=O)N1CCN(C(=O)N2CCOCC2)CC1)c1nc2n(c(=O)c1O)CCOC21CCOCC1` [Example 9], for which the IC50 is 2 to 100 nM. Take `CC(=O)N1CCN(S(=O)(=O)c2cc(F)ccc2CNC(=O)c2nc3n(c(=O)c2O)CCOC32CCOCC2)CC1` [Example 10]: the 50% inhibitory concentration (IC50) fell in the range of 2 to 100 nM. The result for `O=C(NCc1ccc(F)cc1S(=O)(=O)N1CCOCC1)c1nc2n(c(=O)c1O)CCOC21CCOCC1` [Example 11] reads 2 to 100 nM. Under `O=C(NCc1ccc(F)cc1S(=O)(=O)N1CCOCC1)c1nc2n(c(=O)c1O)CCOC21CCCC1` [Example 12] stands 2 to 100 nM. Under `O=C(NCc1ccc(F)cc1S(=O)(=O)N1CCOCC1)c1nc2n(c(=O)c1O)CCCC21CCCC1` [Example 13] stands 2 to 100 nM; under `CC1(C)OCCn2c1nc(C(=O)NCc1ccc(F)cc1S(=O)(=O)N1CCNCC1)c(O)c2=O` [Example 14], 2 to 100 nM. Regarding `CN1CCN(S(=O)(=O)c2cc(F)ccc2CNC(=O)c2nc3n(c(=O)c2O)CCOC3(C)C)CC1` [Example 15], the IC50 fell in the range of 2 to 100 nM. As to `CC1(C)OCCn2c1nc(C(=O)NCc1ccc(F)cc1S(=O)(=O)N1CCN(S(C)(=O)=O)CC1)c(O)c2=O` [Example 16], the IC50 lay in the range of 2 to 100 nM. Under `CC1(C)OCCn2c1nc(C(=O)NCc1ccc(F)cc1S(=O)(=O)N1CCN(C(=O)N3CCOCC3)CC1)c(O)c2=O` [Example 17] stands 2 to 100 nM; under `COC(=O)N1CCN(S(=O)(=O)c2cc(F)ccc2CNC(=O)c2nc3n(c(=O)c2O)CCOC3(C)C)CC1` [Example 18], 2 to 100 nM; under `CN(C)C(=O)N1CCN(S(=O)(=O)c2cc(F)ccc2CNC(=O)c2nc3n(c(=O)c2O)CCOC3(C)C)CC1` [Example 19], 2 to 100 nM. As for `CC(=O)N1CCN(S(=O)(=O)c2cc(F)ccc2CNC(=O)c2nc3n(c(=O)c2O)CCOC3(C)C)CC1` [Example 20], the IC50 lay in the range of 2 to 100 nM. With `CN(C)S(=O)(=O)N1CCN(S(=O)(=O)c2cc(F)ccc2CNC(=O)c2nc3n(c(=O)c2O)CCOC3(C)C)CC1` [Example 21], the IC50 was 2 to 100 nM. For the compound `O=C(NCc1ccc(F)cc1S(=O)(=O)N1CCNCC1)c1nc2n(c(=O)c1O)CCOC21CCCC1` [Example 22], the IC50 lay within 2 to 100 nM. As for `CN1CCN(S(=O)(=O)c2cc(F)ccc2CNC(=O)c2nc3n(c(=O)c2O)CCOC32CCCC2)CC1` [Example 23], the 50% inhibitory concentration (IC50) fell in the range of 2 to 100 nM. Under `CN1CCN(S(=O)(=O)c2cc(F)ccc2CNC(=O)c2nc3n(c(=O)c2O)CCOC32CCC2)CC1` [Example 24] stands 2 to 100 nM; under `CC1(C)OCCn2c1nc(C(=O)NCc1ccc(F)cc1S(=O)(=O)N1CCC(O)CC1)c(O)c2=O` [Example 25], 2 to 100 nM. `CC1(C)OCCn2c1nc(C(=O)NCc1ccc(F)cc1S(=O)(=O)N1CCC1)c(O)c2=O` [Example 26]: the IC50 was in the range of 2 to 100 nM.

Regarding `CC1(C)OCCn2c1nc(C(=O)NCc1ccc(F)cc1S(=O)(=O)N1CCOCC1)c(O)c2=O` [Example 27], the IC50 was 2 to 100 nM. In the case of `CC1(C)OCCn2c1nc(C(=O)NCc1ccc(F)cc1S(=O)(=O)N1CCCCCC1)c(O)c2=O` [Example 28], the IC50 lay within 2 to 100 nM. In the case of `CC1(C)OCCn2c1nc(C(=O)NCc1ccc(F)cc1S(=O)(=O)N1CCC(O)C1)c(O)c2=O` (stereo not shown) [Example 29], the 50% inhibitory concentration (IC50) lay in the range of 2 to 100 nM. Under `CC1(C)OCCn2c1nc(C(=O)NCc1ccc(F)cc1S(=O)(=O)N1CCCCC1)c(O)c2=O` [Example 30] stands 2 to 100 nM; under `CC1(C)OCCn2c1nc(C(=O)NCc1ccc(F)cc1S(=O)(=O)N1CCC3(CC1)OCCO3)c(O)c2=O` [Example 31], 2 to 100 nM.

Turning to `CC1(C)OCCn2c1nc(C(=O)NCc1ccc(F)cc1S(=O)(=O)N1CCC3(CCNC3=O)CC1)c(O)c2=O` [Example 32], the IC50 lay within 2 to 100 nM.

As to `CC1(C)OCCn2c1nc(C(=O)NCc1ccc(F)cc1S(=O)(=O)N1CCCC1)c(O)c2=O` [Example 33], the IC50 is 2 to 100 nM. With `CC(=O)N(C)C1CCN(S(=O)(=O)c2cc(F)ccc2CNC(=O)c2nc3n(c(=O)c2O)CCOC3(C)C)C1` (stereo not shown) [Example 34], the IC50 is 2 to 100 nM. The result for `CC1CN(S(=O)(=O)c2cc(F)ccc2CNC(=O)c2nc3n(c(=O)c2O)CCOC3(C)C)CC(C)N1` (stereo not shown) [Example 35] reads 2 to 100 nM. On to `CC1CN(S(=O)(=O)c2cc(F)ccc2CNC(=O)c2nc3n(c(=O)c2O)CCOC3(C)C)CC(C)N1C` (stereo not shown) [Example 36], for which the half-inhibitory concentration (IC50) lay in the range of 2 to 100 nM.

`C[C@@H]1CN(S(=O)(=O)c2cc(F)ccc2CNC(=O)c2nc3n(c(=O)c2O)CCOC3(C)C)CCN1C(=O)OC(C)(C)C` [Example 37]: the IC50 was 2 to 100 nM. `CS[C@@H]1COC[C@H]1N1CCN(S(=O)(=O)c2cc(F)ccc2CNC(=O)c2nc3n(c(=O)c2O)CCOC3(C)C)CC1` [Example 38]: the IC50 is 2 to 100 nM.

For `CC1(C)OCCn2c1nc(C(=O)NCc1ccc(F)cc1S(=O)(=O)N1CCOC(CN3CCCC3)C1)c(O)c2=O` (stereo not shown) [Example 39], the IC50 is 2 to 100 nM.

On to `CN(C)[C@@H]1COC[C@H]1N1CCN(S(=O)(=O)c2cc(F)ccc2CNC(=O)c2nc3n(c(=O)c2O)CCOC3(C)C)CC1` [Example 40], for which the IC50 fell in the range of 2 to 100 nM. The result for `C[C@@H]1CN(S(=O)(=O)c2cc(F)ccc2CNC(=O)c2nc3n(c(=O)c2O)CCOC3(C)C)CCN1` [Example 41] reads 2 to 100 nM; that for `C[C@@H]1CN(S(=O)(=O)c2cc(F)ccc2CNC(=O)c2nc3n(c(=O)c2O)CCOC3(C)C)CCN1C` [Example 42], 2 to 100 nM.
